Laboratory results reported in US6756229B1, “Human cell line showing stable expression of cytochromes P450” (Takeda Chemical Industries, Ltd., priority 1999, dated 2004).

Legend:
CYP2B6 = target: T1, CYP2B6 (Homo sapiens, UniProt P20813); test: Kinetic analysis, 7-ethoxycoumarin O-deethylase activity in Hepc/2B6.68; type: cell-based
T1 construct: expressed in transfected cells
T1 sequence (P20813 1-491): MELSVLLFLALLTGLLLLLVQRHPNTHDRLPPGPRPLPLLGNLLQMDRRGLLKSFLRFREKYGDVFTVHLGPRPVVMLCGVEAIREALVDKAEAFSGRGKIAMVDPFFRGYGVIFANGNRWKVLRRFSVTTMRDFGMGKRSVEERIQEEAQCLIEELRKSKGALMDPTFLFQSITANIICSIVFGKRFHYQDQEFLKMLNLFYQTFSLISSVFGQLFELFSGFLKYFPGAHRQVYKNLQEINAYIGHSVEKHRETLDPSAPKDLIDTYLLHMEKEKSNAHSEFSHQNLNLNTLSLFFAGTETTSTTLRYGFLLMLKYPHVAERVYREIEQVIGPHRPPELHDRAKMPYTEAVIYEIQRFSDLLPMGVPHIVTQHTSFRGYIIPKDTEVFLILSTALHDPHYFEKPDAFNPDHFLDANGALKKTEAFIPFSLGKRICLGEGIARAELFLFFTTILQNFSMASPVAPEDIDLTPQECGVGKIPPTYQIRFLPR
Procedure: The reaction solution was diluted to 10-fold with 0.1M Tris-HCl (pH 7.4) and fluorescent intensity was measured at an excited wavelength of 390 nm and a fluorescence wavelength of 440 nm, using a spectrofluorometer (Hitatchi Spectrofluorometer F-2000) to quantify 7-hydroxycoumarin formed. The product purchased from Extrasynthese was used as the standard substance for 7-hydroxycoumarin.

HepG2 [1] = test: MTT assay, cytotoxicity of acetaminophen in HepG2; type: cell-based, human; details: HepG2, without BSO, 4 days incubation (FIG. 1)
Procedure: (§1) HepG2 or CYP2E1-expressing cells (Hepc/2E1.3-8) (4×10^5 cells/ml) were incubated with acetaminophen (Wako Junyaku K. K. ) diluted to a given concentration in DMEM medium supplemented with 5% FCS in a CO2 incubator. In the test to terminate glutathione conjugation, L-Buthionine [S,R]-Sulfoximine (BSO, Sigma) was added to the medium in a final concentration of 100 μM. After incubation for 4 days, 20 μl of a solution of 3-(4,5-dimethyl-2-thiazolyl)-2,5-diphenyl-2H-tetrazolium bromide (MTT, Sigma) adjusted to 1 mg/ml with PBS (Flow) was added to each well followed by incubation at 37° C. for 3 hours. Next, 100 μl of 0.01N HCl solution containing 10% SDS was added to each well. After incubation at 37° C. overnight, absorbance was measured at 590 nm.

[2] = test system: CYP2E1-expressing cells (Hepc/2E1.3-8); test: LDH leakage test, acetaminophen in CYP2E1-expressing cells; type: cell-based, human
Procedure: (§2) Two plates each with the same design as in the MTT assay were prepared (for determination of LDH activity in the culture supernatant and for determination of LDH activity in the culture supernatant+LDH activity in the cells). After incubating for 3 days in a CO2 incubator, 10 μl of the supernatant was taken from each well of one plate (for determination of LDH activity in the supernatant), transferred to another 96-well plate, and 40 μl of distilled water was further added. On the other hand, 10 μl of 10% Triton X100 (Wako Junyaku K. K. ) was added to each well of another plate (for determination of LDH activity in the culture supernatant+LDH activity in the cells), followed by shaking and incubation at 37° C. for 45 minutes. After centrifuging at 1500 rpm for 5 minutes, 10 μl of the supernatant was taken from each well, transferred to another 96-well plate, and 40 μl of distilled water was further added. The LDH activity of each well in these plates was measured using Cytotox 96 Non-Radioactive Cytotoxicity Assay Kit (Promega). Multiscanning MS-UV was used for the measurement of absorbance. A ratio of the LDH activity in the supernatant to (the LDH activity in the supernatant+ the LDH activity in the cells) was made an LDH leakage rate.

HepG2 [3] = test: LDH leakage test, acetaminophen in HepG2; type: cell-based, human
Procedure: as §2

[4] = test system: CYP2E1-expressing cells (Hepc/2E1.3-8); test: MTT assay, cytotoxicity of acetaminophen in CYP2E1-expressing cells; type: cell-based, human; details: 4 days incubation (FIG. 1)
Procedure: as §1

CYP2A6 = target: T2, CYP2A6 (Homo sapiens, UniProt P11509); test: Kinetic analysis, coumarin 7-hydroxylase activity in Hepc/2A6L.9; type: cell-based
T2 construct: expressed in transfected cells
T2 sequence (P11509 1-494): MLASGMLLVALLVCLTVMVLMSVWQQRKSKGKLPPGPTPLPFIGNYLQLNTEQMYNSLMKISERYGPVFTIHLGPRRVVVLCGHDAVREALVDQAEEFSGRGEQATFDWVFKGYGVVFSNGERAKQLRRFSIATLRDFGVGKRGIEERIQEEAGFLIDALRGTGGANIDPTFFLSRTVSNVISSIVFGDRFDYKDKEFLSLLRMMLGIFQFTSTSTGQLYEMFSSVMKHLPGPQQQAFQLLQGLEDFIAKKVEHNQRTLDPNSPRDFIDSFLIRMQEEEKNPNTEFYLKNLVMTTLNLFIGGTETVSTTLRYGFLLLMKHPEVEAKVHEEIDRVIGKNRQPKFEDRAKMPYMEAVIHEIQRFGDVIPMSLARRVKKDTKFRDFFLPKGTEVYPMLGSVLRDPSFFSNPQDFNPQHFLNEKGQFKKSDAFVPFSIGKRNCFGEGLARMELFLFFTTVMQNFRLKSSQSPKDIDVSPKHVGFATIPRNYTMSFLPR
Description: The product purchased from Extrasynthese was used as the standard substance for 7-hydroxycoumarin.

[5] = test system: CYP2B6-expressing cells (Hepc/2B6.68); details: Hepc/2B6.68, 4 days incubation; plateau above 2 mM
Procedure: Two plates each with the same design as in the MTT assay were prepared (for determination of LDH activity in the culture supernatant and for determination of LDH activity in the culture supernatant+LDH activity in the cells). After incubating for 4 days in a CO2 incubator, 10 μl of the supernatant was taken from each well of one plate (for determination of LDH activity in the supernatant), transferred to another 96-well plate, and 40 μl of distilled water was further added. On the other hand, 10 μl of 10% Triton X100 was added to each well of another plate (for determination of LDH activity in the culture supernatant+LDH activity in the cells), followed by shaking and incubation at 37° C. for 45 minutes. After centrifuging at 1500 rpm for 5 minutes, 10 μl of the supernatant was taken from each well, transferred to another 96-well plate, and 40 μl of distilled water was further added. The LDH activity of each well in these plates was measured using Cytotox 96 Non-Radioactive Cytotoxicity Assay Kit (Promega). Multiscanning MS-UV was used for the measurement of absorbance. A ratio of the LDH activity in the supernatant to (the LDH activity in the supernatant + the LDH activity in the cells) was made an LDH leakage rate.

[6] = test system: CYP2B6-expressing cells (Hepc/2B6.68); details: Hepc/2B6.68, 4 days incubation (printed FIG. 5)
Procedure: (§3) After incubation for 4 days, 20 μl of a MTT (Sigma) solution adjusted to 1 mg/ml with PBS (Flow) was added to each well followed by incubation at 37° C. for 3 hours. Next, 100 μl of 0.01N HCl solution containing 10% SDS was added to each well. After incubation at 37° C. overnight, absorbance was measured at 590 nm.

HepG2 [7] = details: HepG2, 4 days incubation (printed FIG. 4)
Procedure: as §3
Two plates each with the same design as in the MTT assay were prepared (for determination of LDH activity in the culture supernatant and for determination of LDH activity in the culture supernatant+LDH activity in the cells). After incubating for 4 days in a CO2 incubator, 10 μl of the supernatant was taken from each well of one plate (for determination of LDH activity in the supernatant), transferred to another 96-well plate, and 40 μl of distilled water was further added. On the other hand, 10 μl of 10% Triton X100 was added to each well of another plate (for determination of LDH activity in the culture supernatant+LDH activity in the cells), followed by shaking and incubation at 37° C. for 45 minutes. After centrifuging at 1500 rpm for 5 minutes, 10 μl of the supernatant was taken from each well, transferred to another 96-well plate, and 40 μl of distilled water was further added. The LDH activity of each well in these plates was measured using Cytotox 96 Non-Radioactive Cytotoxicity Assay Kit (Promega). Multiscanning MS-UV was used for the measurement of absorbance. […]

CYP2E1 = CYP2E1 (Homo sapiens, UniProt P05181); details: Hepc/2E1.3-8 cells incubated 3 days with the substance; 500 μM p-nitrophenol (FIG. 7)
Sequence of CYP2E1 (P05181 whole entry): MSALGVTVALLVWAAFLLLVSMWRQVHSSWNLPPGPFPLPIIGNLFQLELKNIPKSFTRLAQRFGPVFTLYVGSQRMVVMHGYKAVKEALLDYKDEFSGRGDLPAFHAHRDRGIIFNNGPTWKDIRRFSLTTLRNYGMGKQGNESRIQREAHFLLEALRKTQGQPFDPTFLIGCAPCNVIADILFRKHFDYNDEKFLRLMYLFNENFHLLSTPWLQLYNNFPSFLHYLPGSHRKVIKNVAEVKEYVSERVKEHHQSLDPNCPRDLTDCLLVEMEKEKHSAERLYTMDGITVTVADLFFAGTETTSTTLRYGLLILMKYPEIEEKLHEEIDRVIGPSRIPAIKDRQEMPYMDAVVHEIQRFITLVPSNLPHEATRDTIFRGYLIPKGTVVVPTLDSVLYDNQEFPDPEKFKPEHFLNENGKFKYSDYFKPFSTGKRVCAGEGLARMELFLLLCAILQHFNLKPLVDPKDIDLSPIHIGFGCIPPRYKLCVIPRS
Procedure: The medium was suctioned and the cells attached to the plate were washed with Phenol Red-free DMEM medium. Subsequently, p-nitrophenol previously diluted to 500 μM was added in 500 μl/well. After reacting at 37° C., the reaction solution was recovered from each well. To 100 μl of the reaction solution 50 μl of NaOH (Wako Junyaku K. K. ) was added, and insoluble matters were removed by centrifugation. By measuring absorbance at 540 nm-620 nm with multi-scanning MS-UV (Labo Systems), 4-nitrocatechol formed was quantified.

CYP3A4 = CYP3A4 (Homo sapiens, UniProt P08684); test: Kinetic analysis, testosterone 6β-hydroxylase activity in Hepc/3A4.5
Sequence of CYP3A4 (P08684 whole entry): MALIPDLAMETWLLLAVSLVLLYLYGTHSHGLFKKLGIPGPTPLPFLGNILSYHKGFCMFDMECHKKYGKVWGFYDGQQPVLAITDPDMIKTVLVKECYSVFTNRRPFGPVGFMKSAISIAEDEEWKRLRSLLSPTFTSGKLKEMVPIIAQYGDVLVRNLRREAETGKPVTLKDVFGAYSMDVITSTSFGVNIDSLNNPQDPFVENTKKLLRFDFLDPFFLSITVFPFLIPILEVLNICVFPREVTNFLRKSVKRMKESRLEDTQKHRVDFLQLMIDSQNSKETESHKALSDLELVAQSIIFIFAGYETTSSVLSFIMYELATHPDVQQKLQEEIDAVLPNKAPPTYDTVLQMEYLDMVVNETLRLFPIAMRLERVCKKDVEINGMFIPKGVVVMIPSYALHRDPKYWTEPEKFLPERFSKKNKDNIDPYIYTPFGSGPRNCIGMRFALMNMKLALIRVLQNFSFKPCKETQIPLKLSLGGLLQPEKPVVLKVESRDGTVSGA
Procedure: Subsequently, testosterone previously diluted to 100 μM was added in 500 μl/well.
A program was made up to set for a linear gradient of 0-100% solution B in 0-20 minutes, 100% solution B in 20-30 minutes and since then 100% solution.

[8] = test system: CYP1A1-expressing cells (Hepc/1A1.4); test: MTT assay, cytotoxicity of benzanthracene in CYP1A1-expressing cells; type: cell-based, human; details: Hepc/1A1.4 compared with HepG2, 4 days incubation, concentration-dependent (FIG. 3)
Procedure: CYP1A1-expressing cells (Hepc/1A1.4) (4×10^5 cells/ml) were incubated with benzanthracene (Sigma) diluted to a given concentration in DMEM medium supplemented with 5% FCS in a CO2 incubator. After incubation for 4 days, 20 μl of a MTT (Sigma) solution adjusted to 1 mg/ml with PBS (Flow) was added to each well followed by incubation at 37° C. for 3 hours. Next, 100 μl of 0.01N HCl solution containing 10% SDS was added to each well. After incubation at 37° C. overnight, absorbance was measured at 590 nm.

CCOc1ccc2ccc(=O)oc2c1 [7-ethoxycoumarin]
Vmax (CYP2B6; Lineweaver-Burk plot): 80 pmol/min/mg | Km (CYP2B6; human, Hepc/2B6.68 cells expressing CYP2B6, Lineweaver-Burk plot): 81 µM

CC(=O)Nc1ccc(O)cc1 [Acetaminophen, acetaminophen]
MTT activity (HepG2 [1]): slight decrease of the MTT activity | enhancement of sensitivity to acetaminophen in the presence of BSO (LDH leakage) ([2]; Hepc/2E1.3-8 + 100 μM BSO (glutathione exhausted), versus without BSO): approximately 4 times | leakage of LDH ([2]; Hepc/2E1.3-8, without BSO, 3 days incubation (FIG. 2)): slight leakage of LDH | effect of the presence of BSO on LDH leakage (HepG2 [3]; HepG2 + 100 μM BSO (FIG. 2)): Any effect expected in the presence of BSO was not noted | leakage of LDH (HepG2 [3]; HepG2, without BSO, 3 days incubation (FIG. 2)): slight leakage of LDH | MTT activity in the presence of BSO ([4]; Hepc/2E1.3-8 + 100 μM BSO): increased sensitivity to acetaminophen | MTT activity ([4]; Hepc/2E1.3-8, without BSO): slight decrease of the MTT activity

O=c1ccc2ccccc2o1 [Coumarin]
Vmax (CYP2A6; Lineweaver-Burk plot): 412 pmol/min/mg | Km (CYP2A6; human, Hepc/2A6L.9 cells expressing CYP2A6, Lineweaver-Burk plot): 11.1 µM

O=P1(N(CCCl)CCCl)NCCCO1 (stereo not shown) [Cyclophosphamide, cyclophosphamide]
leakage of LDH [5]: concentration-dependently in the concentration up to 2 mM | MTT activity [6]: slight decrease of the MTT activity concentration-dependently | cytotoxicity (HepG2 [7]): slightly cytotoxic

C[S+](C)[O-] [DMSO, dimethylsulfoxide]
CYP2E1 activity induction (p-nitrophenol hydroxylation, 4-nitrocatechol formed) (CYP2E1): the enzyme activity increases

C[C@]12CC[C@H]3[C@@H](CCC4=CC(=O)CC[C@@]43C)[C@@H]1CC[C@@H]2O [Testosterone]
Vmax (CYP3A4; Hepc/3A4.5, testosterone 6β-hydroxylase activity, Lineweaver-Burk plot): 71 pmol/min/mg | Km (CYP3A4; human, Hepc/3A4.5 cells expressing CYP3A4): 96 µM

c1ccc2cc3c(ccc4ccccc43)cc2c1 [benzanthracene]
reduction in the MTT activity [8]: more potent reduction in the MTT activity

CCO [ethanol]
CYP2E1 activity induction (p-nitrophenol hydroxylation, 4-nitrocatechol formed) (CYP2E1): the enzyme activity increases
